These results are taken from the supplement of paper PMC10307832.

Holding throughout (assay): relative viability (nuclei count vs DMSO), 5 days (fraction); higher = more cells survive
Compound in test [1]: COc1cc(N2CCC(N3CCN(C)CC3)CC2)ccc1Nc1ncc(Cl)c(Nc2ccccc2S(=O)(=O)C(C)C)n1 [NVP-TAE684] + O=C(c1cc(Cc2n[nH]c(=O)c3ccccc23)ccc1F)N1CCN(C(=O)C2CC2)CC1 [Olaparib] (partner 8 µM)
In outline:
(§1)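 A single step with final 0.05% Triton X-100, 1% formaldehyde and 1 ug/ml Hoechst fixed the cells and stained nuclei 5 days after treatment. Lung cancer cell lines in 1536-well plates had been treated by pin tool the day after seeding with one drug alone or a fixed anchor-drug dose plus five library-drug doses (not always all listed) in √10 steps, and nuclei were counted on 4× images. Relative viability is the ratio of nuclei in treated wells to nuclei in vehicle wells, taken as the median of duplicate plates.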

Compound in test [2]: COc1cc2/c(=N/c3ccc(Br)cc3F)nc[nH]c2cc1OCC1CCN(C)CC1 [Vandetanib] + CCNC(=O)c1noc(-c2cc(C(C)C)c(O)cc2O)c1-c1ccc(CN2CCOCC2)cc1 [Luminespib] (partner 0.01 µM)
In outline: as §1

Compound in test [3]: C#Cc1cccc(Nc2ncnc3cc(OC)c(OCCCCCCC(=O)NO)cc23)c1 [CUDC-101] + Nc1ncn([C@H]2C[C@H](O)[C@@H](CO)O2)c(=O)n1 [Decitabine] (partner 2 µM)
The gist of the method: as §1

Compound in test [4]: COc1cc2/c(=N/c3ccc(Br)cc3F)nc[nH]c2cc1OCC1CCN(C)CC1 [Vandetanib] + NC(=O)Nc1cc(-c2cccc(F)c2)sc1C(=O)N[C@H]1CCCNC1 [AZD7762] (partner 0.2 µM)
The gist of the method: as §1

As for Calu-6, the relative viability in test [1] (first compound 0.2 µM) is 0.657; in test [1] (first compound 0.6325 µM), 0.519; in test [1] (first compound 2 µM), 0.357.

For NCI-H2228, the relative viability in test [2] (first compound 0.02 µM) was found to be 0.153; in test [2] (first compound 0.06325 µM), 0.176; in test [2] (first compound 0.2 µM), 0.116; in test [2] (first compound 0.6325 µM) it was 0.143; in test [2] (first compound 2 µM), 0.116; in test [1] (first compound 0.2 µM), 0.36. In addition, the relative viability came to 0.384 in test [1] (first compound 0.6325 µM) and 0.109 in test [1] (first compound 2 µM).

On to NCI-H1563, for which the relative viability in test [2] (first compound 0.02 µM) amounted to 0.552; in test [2] (first compound 0.06325 µM) it was 0.53; in test [2] (first compound 0.2 µM), 0.515; in test [2] (first compound 0.6325 µM) it was 0.518; in test [2] (first compound 2 µM) it was 0.473.

Consider COR-L23, for which the relative viability worked out at 0.629 in test [2] (first compound 0.02 µM); 0.653 in test [2] (first compound 0.06325 µM); 0.747 in test [2] (first compound 0.2 µM); 0.7 in test [2] (first compound 0.6325 µM); 0.685 in test [2] (first compound 2 µM); 0.273 in test [1] (first compound 0.2 µM). The relative viability in test [1] (first compound 0.6325 µM) stood at 0.282; in test [1] (first compound 2 µM), 0.281; in test [3] (first compound 0.01 µM), 0.432; in test [3] (first compound 0.03162 µM), 0.383; in test [3] (first compound 0.1 µM) it was 0.332; in test [3] (first compound 0.3162 µM), 0.376. Further, in test [3] (first compound 1 µM), the relative viability was 0.164.

EBC-1: the relative viability in test [1] (first compound 0.2 µM) stood at 0.713; in test [1] (first compound 0.6325 µM), 0.661; in test [1] (first compound 2 µM), 0.55.

NCI-H2023: the relative viability in test [2] (first compound 0.02 µM) turned out to be 0.811; in test [2] (first compound 0.06325 µM), 0.604; in test [2] (first compound 0.2 µM) it was 0.796; in test [2] (first compound 0.6325 µM), 0.731; in test [2] (first compound 2 µM), 0.497; in test [1] (first compound 0.2 µM), 0.587. Further, the relative viability stood at 0.518 in test [1] (first compound 0.6325 µM); 0.138 in test [1] (first compound 2 µM); 0.222 in test [3] (first compound 0.01 µM); 0.248 in test [3] (first compound 0.03162 µM); 0.188 in test [3] (first compound 0.1 µM); 0.212 in test [3] (first compound 0.3162 µM). Besides, the relative viability in test [3] (first compound 1 µM) was determined as 0.193.

In the case of SW 1573, the relative viability in test [2] (first compound 0.02 µM) was 0.383; in test [2] (first compound 0.06325 µM) it was 0.227; in test [2] (first compound 0.2 µM) it was 0.415; in test [2] (first compound 0.6325 µM), 0.24; in test [2] (first compound 2 µM), 0.18; in test [1] (first compound 0.2 µM), 0.519. The relative viability in test [1] (first compound 0.6325 µM) is 0.401; in test [1] (first compound 2 µM), 0.148; in test [3] (first compound 0.01 µM), 0.552; in test [3] (first compound 0.03162 µM), 0.514; in test [3] (first compound 0.1 µM) it was 0.489; in test [3] (first compound 0.3162 µM) it was 0.593. Besides, the relative viability in test [3] (first compound 1 µM) was 0.264.

For NCI-H661, the relative viability in test [2] (first compound 0.02 µM) was 0.912; in test [2] (first compound 0.06325 µM) it was 0.914; in test [2] (first compound 0.2 µM) it was 0.869; in test [2] (first compound 0.6325 µM), 0.934; in test [2] (first compound 2 µM), 0.978; in test [1] (first compound 0.2 µM), 0.771. In addition, the relative viability in test [1] (first compound 0.6325 µM) worked out at 0.788; in test [1] (first compound 2 µM) it was 0.625; in test [3] (first compound 0.01 µM), 0.544; in test [3] (first compound 0.03162 µM), 0.497; in test [3] (first compound 0.1 µM), 0.487; in test [3] (first compound 0.3162 µM), 0.571. Besides, the relative viability in test [3] (first compound 1 µM) turned out to be 0.307.

As to A549, the relative viability was determined as 0.308 in test [1] (first compound 0.2 µM); 0.387 in test [1] (first compound 0.6325 µM); 0.3 in test [1] (first compound 2 µM); 0.297 in test [3] (first compound 0.01 µM); 0.277 in test [3] (first compound 0.03162 µM); 0.218 in test [3] (first compound 0.1 µM). The figures for the relative viability in test [3] (first compound 0.3162 µM) and in test [3] (first compound 1 µM) were 0.286 and 0.276, respectively.

Take NCI-H1648: the relative viability in test [4] (first compound 0.02 µM) stood at 0.643; in test [4] (first compound 0.06325 µM), 0.601; in test [4] (first compound 0.2 µM), 0.676; in test [4] (first compound 0.6325 µM), 0.638; in test [4] (first compound 2 µM), 0.625; in test [1] (first compound 0.2 µM), 0.45. Besides, the relative viability in test [1] (first compound 0.6325 µM) came to 0.863; in test [1] (first compound 2 µM), 0.287; in test [3] (first compound 0.01 µM), 0.548; in test [3] (first compound 0.03162 µM) it was 0.519; in test [3] (first compound 0.1 µM), 0.439; in test [3] (first compound 0.3162 µM), 0.451. Further, the relative viability in test [3] (first compound 1 µM) was determined as 0.324.

Regarding CAL-12T, the relative viability in test [2] (first compound 0.02 µM) was 0.367; in test [2] (first compound 0.06325 µM), 0.461; in test [2] (first compound 0.2 µM), 0.183; in test [2] (first compound 0.6325 µM), 0.307; in test [2] (first compound 2 µM), 0.232; in test [4] (first compound 0.02 µM), 0.676. In addition, the relative viability amounted to 0.611 in test [4] (first compound 0.06325 µM); 0.631 in test [4] (first compound 0.2 µM); 0.643 in test [4] (first compound 0.6325 µM); 0.574 in test [4] (first compound 2 µM); 0.664 in test [1] (first compound 0.2 µM); 0.781 in test [1] (first compound 0.6325 µM). Besides, the relative viability in test [1] (first compound 2 µM) was found to be 0.267.

As to SK-LU-1, the relative viability in test [2] (first compound 0.02 µM) worked out at 0.202; in test [2] (first compound 0.06325 µM), 0.204; in test [2] (first compound 0.2 µM) it was 0.156; in test [2] (first compound 0.6325 µM) it was 0.196; in test [2] (first compound 2 µM), 0.217; in test [1] (first compound 0.2 µM) it was 0.483. Further, the relative viability in test [1] (first compound 0.6325 µM) is 0.425; in test [1] (first compound 2 µM), 0.352; in test [3] (first compound 0.01 µM) it was 0.671; in test [3] (first compound 0.03162 µM) it was 0.646; in test [3] (first compound 0.1 µM), 0.677; in test [3] (first compound 0.3162 µM), 0.729. Besides, the relative viability in test [3] (first compound 1 µM) was found to be 0.609.

As to NCI-H520, the relative viability in test [2] (first compound 0.02 µM) is 0.206; in test [2] (first compound 0.06325 µM), 0.218; in test [2] (first compound 0.2 µM), 0.222; in test [2] (first compound 0.6325 µM) it was 0.253; in test [2] (first compound 2 µM) it was 0.209; in test [1] (first compound 0.2 µM) it was 0.327. Besides, the relative viability in test [1] (first compound 0.6325 µM) stood at 0.332; in test [1] (first compound 2 µM), 0.198; in test [3] (first compound 0.01 µM), 0.49; in test [3] (first compound 0.03162 µM), 0.622; in test [3] (first compound 0.1 µM), 0.478; in test [3] (first compound 0.3162 µM) it was 0.513. Further, the relative viability in test [3] (first compound 1 µM) was found to be 0.318.
